Test results taken from ChEMBL document CHEMBL1201862, “PubChem BioAssay data set” (2004).
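Cultured in 96-well plates, cells were exposed to test compound for 48 hours across five concentrations. At the GI50, growth is halved.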 Active and inactive are the calls of the source. Rule as the data show it: active = GI50 up to about 1.1 µM and inactive = higher.

How the values were obtained:
Test in all cases: DTP human tumour cell line panel, 48 h
LOX IMVI = test system: LOX IMVI
CAKI-1 = test system: CAKI-1
UACC-62 = test system: UACC-62
HOP-62 = test system: HOP-62
HCT-15 = test system: HCT-15
UACC-257 = test system: UACC-257
RPMI-8226 = test system: RPMI-8226
MCF7 = test system: MCF7
HOP-92 = test system: HOP-92
IGROV-1 = test system: IGROV-1
DU-145 = test system: DU-145
SF-268 = test system: SF-268
MDA-MB-435 = test system: MDA-MB-435
RXF 393 = test system: RXF 393
OVCAR-5 = test system: OVCAR-5
NCI-H522 = test system: NCI-H522
NCI/ADR-RES = test system: NCI/ADR-RES
SF-539 = test system: SF-539
A549 = test system: A549
A498 = test system: A498

Row | Compound | GI50 (LOX IMVI) | GI50 (CAKI-1) | GI50 (UACC-62) | GI50 (HOP-62) | GI50 (HCT-15) [µM] | GI50 (UACC-257) | GI50 (RPMI-8226) | GI50 (MCF7) | GI50 (HOP-92) | GI50 (IGROV-1) | GI50 (DU-145) | GI50 (SF-268) | GI50 (MDA-MB-435) | GI50 (RXF 393) | GI50 (OVCAR-5) | GI50 (NCI-H522) | GI50 (NCI/ADR-RES) | GI50 (SF-539) | GI50 (A549) | GI50 (A498)
1 | Clc1ccc(Cc2nc3ccccc3nc2-c2cccc(Br)c2)cc1 | 1.97 µM (inactive) | 2.22 µM (inactive) | 1.91 µM (inactive) | 17.9 µM (inactive) | 1.41 | 3.1 µM (inactive) | 1.64 µM (inactive) | 3.17 µM (inactive) | 0.243 µM (active) | 1.8 µM (inactive) | 10.7 µM (inactive) | 19.8 µM (inactive) | 2.14 µM (inactive) | 2.47 µM (inactive) | 4.19 µM (inactive) | 1.78 µM (inactive) | 3.08 µM (inactive) | 2.26 µM (inactive) | 17 µM (inactive) | 
2 | O=C(Nc1ccn(C2CCC(CO)O2)c(=O)n1)c1ccccc1 (centres undefined) | > 100 µM (inactive) | > 100 µM (inactive) | > 100 µM (inactive) | > 100 µM (inactive) | > 100 | > 100 µM (inactive) | > 100 µM (inactive) | > 100 µM (inactive) |  | > 100 µM (inactive) | > 100 µM (inactive) | > 100 µM (inactive) | > 100 µM (inactive) | > 100 µM (inactive) | > 100 µM (inactive) | > 100 µM (inactive) | > 100 µM (inactive) | > 100 µM (inactive) | > 100 µM (inactive) | 50.4 µM (inactive)
3 | Nc1c(Cl)ncnc1NCC1(CO)CCC1 | > 100 µM (inactive) |  |  | > 100 µM (inactive) | > 100 | 63.4 µM (inactive) | > 100 µM (inactive) | > 100 µM (inactive) | > 100 µM (inactive) | > 100 µM (inactive) | > 100 µM (inactive) | > 100 µM (inactive) | > 100 µM (inactive) |  | > 100 µM (inactive) | > 100 µM (inactive) | > 100 µM (inactive) | > 100 µM (inactive) | > 100 µM (inactive) | > 100 µM (inactive)
4 | O=C(NNC(c1ccccc1)C(F)(F)F)c1ccncc1 (centres undefined) | > 100 µM (inactive) | > 100 µM (inactive) |  | > 100 µM (inactive) | > 100 | > 100 µM (inactive) | > 100 µM (inactive) | > 100 µM (inactive) | > 100 µM (inactive) | > 100 µM (inactive) | > 100 µM (inactive) | > 100 µM (inactive) | > 100 µM (inactive) |  | > 100 µM (inactive) | > 100 µM (inactive) | > 100 µM (inactive) | > 100 µM (inactive) | > 100 µM (inactive) | 
5 | CC(C)(C)NC(=S)N/N=C/c1ccccn1 |  | < 0.0118 µM (active) | 0.578 µM (active) | 0.396 µM (active) | < 0.0159 | < 0.0467 µM (active) | < 0.0106 µM (active) | < 0.01 µM (active) | 2.65 µM (inactive) | 0.0281 µM (active) | 2.04 µM (inactive) | 0.863 µM (active) | 3.61 µM (inactive) | < 0.01 µM (active) | 0.361 µM (active) |  | 0.0343 µM (active) | 3.28 µM (inactive) | 2.13 µM (inactive) | 2.73 µM (inactive)
6 | O=C1CCC(=O)N1n1c(Cc2ccc(Cl)cc2)n[nH]c1=O | > 100 µM (inactive) | > 100 µM (inactive) | > 100 µM (inactive) |  | > 100 | > 100 µM (inactive) | > 100 µM (inactive) | > 100 µM (inactive) | > 100 µM (inactive) | > 100 µM (inactive) | > 100 µM (inactive) | > 100 µM (inactive) | > 100 µM (inactive) |  | > 100 µM (inactive) | > 100 µM (inactive) | > 100 µM (inactive) | > 100 µM (inactive) | > 100 µM (inactive) | > 100 µM (inactive)
7 | C(=C\c1cc[n+](CCc2ccccc2)cc1)/c1ccccc1 | 17.5 µM (inactive) | 22.4 µM (inactive) | 10.7 µM (inactive) | 12.6 µM (inactive) | > 100 | 4.25 µM (inactive) | 5.45 µM (inactive) | 9.16 µM (inactive) | 24.7 µM (inactive) | 31.7 µM (inactive) | 27 µM (inactive) | 18.1 µM (inactive) | 4.98 µM (inactive) | 88.7 µM (inactive) | 22.9 µM (inactive) | 14.7 µM (inactive) | > 100 µM (inactive) | 20.4 µM (inactive) | 5.64 µM (inactive) | 
8 | CC(C(=O)NCNC(=O)c1ccccc1)C(=O)NCc1ccccc1 (centres undefined) |  | > 100 µM (inactive) | > 100 µM (inactive) |  | > 100 | > 100 µM (inactive) | > 100 µM (inactive) | > 100 µM (inactive) | > 100 µM (inactive) | > 100 µM (inactive) | > 100 µM (inactive) | > 100 µM (inactive) | > 100 µM (inactive) | > 100 µM (inactive) | > 100 µM (inactive) | 99.3 µM (inactive) | > 100 µM (inactive) | > 100 µM (inactive) | > 100 µM (inactive) | 
9 | Nc1ccc2nc3c(nc2c1)C(=O)c1ccccc1-3 |  |  | > 100 µM (inactive) | > 100 µM (inactive) | > 100 | > 100 µM (inactive) | > 100 µM (inactive) | > 100 µM (inactive) | > 100 µM (inactive) | > 100 µM (inactive) | > 100 µM (inactive) | > 100 µM (inactive) | > 100 µM (inactive) | > 100 µM (inactive) | > 100 µM (inactive) | > 100 µM (inactive) | > 100 µM (inactive) | > 100 µM (inactive) | > 100 µM (inactive) | 
10 | CCOC(=O)C(SCCO)C(C(=O)OCC)n1cnc2c(=O)[nH]c(NC(C)=O)nc21 (centres undefined) | 51.8 µM (inactive) | > 100 µM (inactive) | > 100 µM (inactive) | > 100 µM (inactive) | > 100 | > 100 µM (inactive) | > 100 µM (inactive) | > 100 µM (inactive) | > 100 µM (inactive) | > 100 µM (inactive) | > 100 µM (inactive) | > 100 µM (inactive) | > 100 µM (inactive) |  | > 100 µM (inactive) | > 100 µM (inactive) | > 100 µM (inactive) | > 100 µM (inactive) | > 100 µM (inactive) | > 100 µM (inactive)
11 | COC1OC(Cn2c(C)nc(Br)c2Br)C(O)C(O)C1O (centres undefined) |  | > 100 µM (inactive) | > 100 µM (inactive) | > 100 µM (inactive) | > 100 | > 100 µM (inactive) | > 100 µM (inactive) | > 100 µM (inactive) | > 100 µM (inactive) | > 100 µM (inactive) | > 100 µM (inactive) |  | > 100 µM (inactive) | > 100 µM (inactive) | > 100 µM (inactive) | > 100 µM (inactive) | > 100 µM (inactive) |  | > 100 µM (inactive) | > 100 µM (inactive)
12 | COc1ccc(NC(=S)NNC(=O)c2cc(-c3ccccc3)nc3ccccc23)cc1 |  | 23.4 µM (inactive) | 11.5 µM (inactive) | 15.1 µM (inactive) | 12.3 | 18.4 µM (inactive) | 11.4 µM (inactive) | 0.568 µM (active) | 10.6 µM (inactive) | 26.5 µM (inactive) | 18.1 µM (inactive) | 26.1 µM (inactive) | 2.95 µM (inactive) | 13.9 µM (inactive) | 20.8 µM (inactive) | 17.1 µM (inactive) | 12.3 µM (inactive) | 13.2 µM (inactive) | 17.7 µM (inactive) | 14.3 µM (inactive)
13 | c1ccc(-c2nc(-c3ccccc3SSc3ccccc3-c3nc(-c4ccccc4)nn3-c3ccccc3)n(-c3ccccc3)n2)cc1 | > 100 µM (inactive) | > 100 µM (inactive) | > 100 µM (inactive) | > 10 µM (inactive) | > 100 |  | > 100 µM (inactive) | > 100 µM (inactive) | > 100 µM (inactive) | > 100 µM (inactive) | > 100 µM (inactive) | > 100 µM (inactive) | > 100 µM (inactive) | > 100 µM (inactive) | > 100 µM (inactive) |  | > 100 µM (inactive) | > 100 µM (inactive) | > 100 µM (inactive) | > 100 µM (inactive)
14 | COC(=O)CCN(CCC(=O)OC)C1CC1 | > 100 µM (inactive) |  | > 100 µM (inactive) | > 100 µM (inactive) | > 100 | > 100 µM (inactive) | > 100 µM (inactive) | > 100 µM (inactive) | 28.3 µM (inactive) | > 100 µM (inactive) | > 100 µM (inactive) | > 100 µM (inactive) | > 100 µM (inactive) | > 100 µM (inactive) | > 100 µM (inactive) |  | > 100 µM (inactive) | > 100 µM (inactive) | > 100 µM (inactive) | > 100 µM (inactive)
15 | O=C1Nc2nccnc2C(=O)N2CCC[C@@H]12 | > 100 µM (inactive) | > 100 µM (inactive) | > 100 µM (inactive) | > 100 µM (inactive) | > 100 | > 100 µM (inactive) | > 100 µM (inactive) | > 100 µM (inactive) | > 100 µM (inactive) | > 100 µM (inactive) | > 100 µM (inactive) | > 100 µM (inactive) | > 100 µM (inactive) | > 100 µM (inactive) | > 100 µM (inactive) | > 100 µM (inactive) | > 100 µM (inactive) | > 100 µM (inactive) | > 100 µM (inactive) | 
16 | CCN(CC)N1C(=O)[N-][N+](CC)(CC)C1=O | > 100 µM (inactive) | > 100 µM (inactive) | > 100 µM (inactive) | > 100 µM (inactive) | > 100 |  | > 100 µM (inactive) | > 100 µM (inactive) | > 100 µM (inactive) | > 100 µM (inactive) | > 100 µM (inactive) | > 100 µM (inactive) | > 100 µM (inactive) |  | > 100 µM (inactive) | > 100 µM (inactive) | > 100 µM (inactive) | > 100 µM (inactive) | > 100 µM (inactive) | > 100 µM (inactive)
